Reference: PubChem BioAssay AID1963844 (Molecular Pharmacology Branch, DTP, NCI, 2024)

System: 422866-222-R5-J1-PDC complex spheroid viability
Test: Anticancer human tumor 422866-222-R5-J1-PDC patient-derived pancreatic adenocarcinoma cell line growth inhibition [POLQ]
Conditions: for IC50: curve of first compound; for viability, T/C: stronger effect = lower value
Outline: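 PDC + HUVEC + MSC complex spheroids; POLQ inhibitors ± partner drugs; top conc. at/near clinical Cmax, else 10 microM (SN-38 1 microM), half-log dilutions; 37 degrees C, 5% CO2.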
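Also: spheroids exposed to compounds for one week before readout.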
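For viability, T/C in this document: percent of DMSO vehicle wells luminescence so 100% = untreated viability.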

## C=CCn1c(=O)c2cnc(Nc3ccc(N4CCN(C)CC4)cc3)nc2n1-c1cccc(C(C)(C)O)n1 + Nc1ccc(C#CCN(C(=O)Cc2ncc(C(F)(F)F)cc2C(F)(F)F)c2ccc(F)cc2)nn1
Second compound 0.0316 µM
  IC50: 0.29 µM
Second compound 0.1 µM
  IC50: 0.27 µM
Second compound 0.316 µM
  IC50: 0.252 µM
Second compound 1 µM
  IC50: 0.311 µM
Second compound 3.16 µM
  IC50: 0.251 µM
Second compound 10 µM
  IC50: 0.257 µM
Second compound 0.0316 µM, first compound 0.00316 µM
  viability, T/C: 88%
Second compound 0.0316 µM, first compound 0.01 µM
  viability, T/C: 96.6%
Second compound 0.0316 µM, first compound 0.0316 µM
  viability, T/C: 92.1%
Second compound 0.0316 µM, first compound 0.1 µM
  viability, T/C: 79.7%
Second compound 0.0316 µM, first compound 0.316 µM
  viability, T/C: 47.8%
Second compound 0.0316 µM, first compound 1 µM
  viability, T/C: 33.7%
Second compound 0.1 µM, first compound 0.00316 µM
  viability, T/C: 98%
Second compound 0.1 µM, first compound 0.01 µM
  viability, T/C: 102%
Second compound 0.1 µM, first compound 0.0316 µM
  viability, T/C: 98.2%
Second compound 0.1 µM, first compound 0.1 µM
  viability, T/C: 80.8%
Second compound 0.1 µM, first compound 0.316 µM
  viability, T/C: 45.2%
Second compound 0.1 µM, first compound 1 µM
  viability, T/C: 32.8%
Second compound 0.316 µM, first compound 0.00316 µM
  viability, T/C: 97%
Second compound 0.316 µM, first compound 0.01 µM
  viability, T/C: 89.7%
Second compound 0.316 µM, first compound 0.0316 µM
  viability, T/C: 99.7%
Second compound 0.316 µM, first compound 0.1 µM
  viability, T/C: 71.9%
Second compound 0.316 µM, first compound 0.316 µM
  viability, T/C: 46.5%
Second compound 0.316 µM, first compound 1 µM
  viability, T/C: 34.6%
Second compound 1 µM, first compound 0.00316 µM
  viability, T/C: 97.6%
Second compound 1 µM, first compound 0.01 µM
  viability, T/C: 91.4%
Second compound 1 µM, first compound 0.0316 µM
  viability, T/C: 115%
Second compound 1 µM, first compound 0.1 µM
  viability, T/C: 76.2%
Second compound 1 µM, first compound 0.316 µM
  viability, T/C: 53.5%
Second compound 1 µM, first compound 1 µM
  viability, T/C: 34.3%
Second compound 3.16 µM, first compound 0.00316 µM
  viability, T/C: 78.1%
Second compound 3.16 µM, first compound 0.01 µM
  viability, T/C: 97.1%
Second compound 3.16 µM, first compound 0.0316 µM
  viability, T/C: 128%
Second compound 3.16 µM, first compound 0.1 µM
  viability, T/C: 69.5%
Second compound 3.16 µM, first compound 0.316 µM
  viability, T/C: 53.6%
Second compound 3.16 µM, first compound 1 µM
  viability, T/C: 36.6%
Second compound 10 µM, first compound 0.00316 µM
  viability, T/C: 106%
Second compound 10 µM, first compound 0.01 µM
  viability, T/C: 104%
Second compound 10 µM, first compound 0.0316 µM
  viability, T/C: 103%
Second compound 10 µM, first compound 0.1 µM
  viability, T/C: 78.7%
Second compound 10 µM, first compound 0.316 µM
  viability, T/C: 44%
Second compound 10 µM, first compound 1 µM
  viability, T/C: 35.7%
